Laboratory results reported in patent publication US6723753B2, “Substituted n-benzyl-n-phenyl aminoalcohol compounds useful for inhibiting cholesteryl ester transfer protein activity” (Pharmacia Corporation, priority 2002, dated 2004).

Molecular target: T1, CETP (Homo sapiens, UniProt P11597)
T1 sequence (P11597 18-493): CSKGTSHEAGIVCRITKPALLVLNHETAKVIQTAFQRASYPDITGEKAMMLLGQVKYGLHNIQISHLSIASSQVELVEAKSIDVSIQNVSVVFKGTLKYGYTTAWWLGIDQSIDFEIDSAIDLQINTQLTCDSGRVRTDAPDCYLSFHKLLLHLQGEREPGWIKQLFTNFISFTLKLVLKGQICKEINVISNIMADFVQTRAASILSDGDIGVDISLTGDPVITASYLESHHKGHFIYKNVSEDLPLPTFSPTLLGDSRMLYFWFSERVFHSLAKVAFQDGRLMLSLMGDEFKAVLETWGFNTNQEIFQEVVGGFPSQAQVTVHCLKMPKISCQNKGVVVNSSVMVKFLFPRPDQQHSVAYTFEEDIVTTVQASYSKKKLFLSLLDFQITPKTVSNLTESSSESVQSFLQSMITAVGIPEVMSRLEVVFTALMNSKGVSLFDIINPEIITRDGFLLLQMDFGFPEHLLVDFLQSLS
Test: Assay of CETP Inhibition using Purified Components (Reconstituted Buffer Assay)
Type: biochemical
Design: made in house; host or cells: CHO cells (serum-free conditioned medium)
Conditions: IC50, Inhibition of CETP activity in reconstituted buffer assay; transfer of [3H]CE from HDL to LDL
Outline: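 Transfer of radiolabeled cholesteryl ester from HDL to LDL was run for 2 h at 37 °C in pH 7.4 Tris buffer with 1% BSA, using purified CHO-expressed human CETP. Precipitated LDL radioactivity, measured by scintillation after dextran sulfate/MgCl2 precipitation and filtration, yielded the IC50.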

SMILES | IC50
OC(CN(Cc1cccc(-c2ncccc2C(F)(F)F)c1)c1cccc(Oc2ccccc2)c1)C(F)(F)F (stereo not shown) [Example 588, 3-[(3-phenoxyphenyl)[[3-[(3-trifluoromethyl)-2-pyridinyl]phenyl]methyl]amino]-1,1,1-trifluoro-2-propanol] | 4.1 µM
Cc1cccnc1-c1cccc(CN(CC(O)C(F)(F)F)c2cccc(Oc3ccccc3)c2)c1 (stereo not shown) [Example 589] | 15 µM
OC(CN(Cc1cccc(-c2ccncc2)c1)c1cccc(Oc2ccccc2)c1)C(F)(F)F (stereo not shown) [Example 591] | 6.2 µM
CC(C)Cc1cccc(CN(CC(O)C(F)(F)F)c2cccc(Oc3ccccc3)c2)c1 (stereo not shown) [Example 598] | 0.54 µM

Same assay, conditions: Inhibition of CETP activity in reconstituted buffer assay; transfer of [3H]CE from HDL to LDL; read-out: IC50

SMILES | IC50
OC(CN(Cc1cccc(OC(F)(F)C(F)F)c1)c1cccc(-c2ccc(Cl)cc2Cl)c1)C(F)(F)F (stereo not shown) [Example 567] | 0.55 µM
OC(CN(Cc1cccc(OC(F)(F)C(F)F)c1)c1cccc(-c2ccc(F)cc2)c1)C(F)(F)F (stereo not shown) [Example 568] | 1.4 µM
Cc1cc(-c2cccc(N(Cc3cccc(OC(F)(F)C(F)F)c3)CC(O)C(F)(F)F)c2)ccc1F (stereo not shown) [Example 569] | 1.2 µM
OC(CN(Cc1cccc(OC(F)(F)C(F)F)c1)c1cccc(-c2ccccc2C(F)(F)F)c1)C(F)(F)F (stereo not shown) [Example 570] | 1.8 µM
COc1cccc(-c2cccc(N(Cc3cccc(OC(F)(F)C(F)F)c3)CC(O)C(F)(F)F)c2)c1 (stereo not shown) [Example 571] | 1.6 µM
Nc1cccc(-c2cccc(N(Cc3cccc(OC(F)(F)C(F)F)c3)CC(O)C(F)(F)F)c2)c1 (stereo not shown) [Example 572] | 10 µM
O=C(O)c1ccc(-c2cccc(N(Cc3cccc(OC(F)(F)C(F)F)c3)CC(O)C(F)(F)F)c2)cc1 (stereo not shown) [Example 573] | > 50 µM
CC(C)(C)c1ccc(-c2cccc(N(Cc3cccc(OC(F)(F)C(F)F)c3)CC(O)C(F)(F)F)c2)cc1 (stereo not shown) [Example 574] | 18 µM
CS(=O)(=O)c1ccc(-c2cccc(N(Cc3cccc(OC(F)(F)C(F)F)c3)CC(O)C(F)(F)F)c2)cc1 (stereo not shown) [Example 575] | > 50 µM
N#Cc1cccc(N(Cc2cccc(OC(F)(F)C(F)F)c2)CC(O)C(F)(F)F)c1 (stereo not shown) [Example 576, 3-[[[3-(1,1,2,2-tetrafluoroethoxy)phenyl]methyl](3,3,3-trifluoro-2-hydroxypropyl)amino]benzonitrile] | 6.4 µM
OC(CN(Cc1cccc(OC(F)(F)C(F)F)c1)c1cccc(-c2nn[nH]n2)c1)C(F)(F)F (stereo not shown) [Example 577, 3-[[[3-(1,1,2,2-tetrafluoroethoxy)phenyl]methyl][3-(1H-tetrazol-5-yl)phenyl]amino]-1,1,1-trifluoro-2-propanol] | > 50 µM
Cc1cc(C(=O)c2cccc(N(Cc3cccc(OC(F)(F)C(F)F)c3)CC(O)C(F)(F)F)c2)ccc1F (stereo not shown) [Example 578, (4-Fluoro-3-methylphenyl) [3-[[[(1,1,2,2-tetrafluoroethoxy)phenyl]methyl](3,3,3-trifluoro-2-hydroxypropyl)amino]phenyl]methanone] | 0.76 µM
O=C(c1ccccc1)c1cccc(N(Cc2cccc(OC(F)(F)C(F)F)c2)CC(O)C(F)(F)F)c1 (stereo not shown) [Example 579] | 1.8 µM
O=C(c1ccc(F)cc1)c1cccc(N(Cc2cccc(OC(F)(F)C(F)F)c2)CC(O)C(F)(F)F)c1 (stereo not shown) [Example 580] | 2.3 µM
O=C(c1cccc(N(Cc2cccc(OC(F)(F)C(F)F)c2)CC(O)C(F)(F)F)c1)C1CCCC1 (stereo not shown) [Example 581] | 0.87 µM
CC(C)C(=O)c1cccc(N(Cc2cccc(OC(F)(F)C(F)F)c2)CC(O)C(F)(F)F)c1 (stereo not shown) [Example 582] | 1.4 µM
OC(c1ccccc1)c1cccc(N(Cc2cccc(OC(F)(F)C(F)F)c2)CC(O)C(F)(F)F)c1 (stereo not drawn) [Example 583, α-Phenyl-3-[[[3-(1,1,2,2-tetrafluoroethoxy)phenyl]methyl]](3,3,3-trifluoro-2-hydroxypropyl)benzenemethanol] | 6.4 µM
CCOC(=O)c1cccc(N(Cc2cccc(OC(F)(F)F)c2)CC(O)C(F)(F)F)c1 (stereo not shown) [Example 585, Ethyl 3-[(3,3,3-trifluoro-2-hydroxypropyl)[[(3-trifluoromethoxy)phenyl]methyl]amino]benzoate] | 5.8 µM
O=C(O)c1cccc(N(Cc2cccc(OC(F)(F)F)c2)CC(O)C(F)(F)F)c1 (stereo not shown) [Example 586] | > 50 µM
OC(CN(Cc1cccc(-c2cccnc2)c1)c1cccc(Oc2ccccc2)c1)C(F)(F)F (stereo not shown) [Example 590] | 14 µM

SMILES | IC50
OC(CN(Cc1cccc(Cc2ccccc2)c1)c1cccc(Oc2ccccc2)c1)C(F)(F)F (stereo not shown) [Example 596, 3-[(3-phenoxyphenyl)[[3-(phenylmethyl)phenyl]methyl]amino]-1,1,1-trifluoro-2-propanol] | 13 µM
CC(C)CCc1cccc(CN(CC(O)C(F)(F)F)c2cccc(Oc3ccccc3)c2)c1 (stereo not shown) [Example 597] | 2 µM
OC(CN(Cc1cccc(Oc2ncccn2)c1)c1cccc(Oc2ccccc2)c1)C(F)(F)F (stereo not shown) [Example 605, 3-[(3-phenoxyphenyl) [[3-(2-pyrimidinyloxy)phenyl]methyl]amino]-1,1,1-trifluoro-2-propanol] | 12 µM
OC(CN(Cc1cccc(-c2ccccc2)c1)c1cccc(Oc2ccccc2)c1)C(F)(F)F (stereo not shown) [Example 606] | 4.2 µM
OC(CN(Cc1cccc(C2CCCC2)c1)c1cccc(Oc2ccccc2)c1)C(F)(F)F (stereo not shown) [Example 607, 3-[(3-phenoxyphenyl)[[3-cyclopentylphenyl]methyl]amino]-1,1,1-trifluoro-2-propanol] | 0.31 µM
OC(CN(Cc1cccc(C2CCCO2)c1)c1cccc(Oc2ccccc2)c1)C(F)(F)F (stereo not shown) [Example 608, 3-[(3-phenoxyphenyl)[[3-(tetrahydro-2-furanyl)phenyl]methyl]amino]-1,1,1-trifluoro-2-propanol] | 2.3 µM
FC(F)C(F)(F)Oc1cccc(C2OC(C(F)(F)F)CN2c2cccc(Oc3ccccc3)c2)c1 (stereo not shown) [Example 610, 3-(3-phenoxyphenyl)-2-[3-(1,1,2,2-tetrafluoroethoxy)phenyl]-5-(trifluoromethyl)oxazolidine] | 20 µM
OC(CCN(Cc1cccc(OC(F)(F)F)c1)Cc1cccc(OC(F)(F)F)c1)C(F)(F)F (stereo not shown) [Example 611, 4-[bis-[[3-(trifluoromethoxy)phenyl]methyl]amino]-1,1,1-trifluoro-2-butanol] | 12 µM
CN(C)C(=O)c1cccc(CN(CC(O)C(F)(F)F)c2cccc(Oc3ccccc3)c2)c1 (stereo not shown) [Example 612, N,N-dimethyl-3-[[(3-phenoxyphenyl)(3,3,3-trifluoro-2-hydroxypropyl)amino]methyl]benzamide] | 35 µM
CC(C)(O)c1cccc(CN(CC(O)C(F)(F)F)c2cccc(Oc3ccccc3)c2)c1 (stereo not drawn) [Example 617, α, α-dimethyl-3-[[(3-phenoxyphenyl)(3,3,3-trifluoro-2-hydroxypropyl)amino]methyl]benzenemethanol] | 7.9 µM
CCC(=O)c1cccc(CN(CC(O)C(F)(F)F)c2cccc(Oc3ccccc3)c2)c1 (stereo not shown) [Example 620, 1-[3-[[(3-phenoxyphenyl)(3,3,3-trifluoro-2-hydroxypropyl)-amino]methyl]phenyl]-1-propanone] | 5 µM
OC(CN(Cc1cccc(C(F)(F)F)c1)c1ccc(C#Cc2ccccc2)c(C(F)(F)F)c1)C(F)(F)F (stereo not shown) [Example 622] | 3.5 µM
OC(CN(Cc1cccc(C(F)(F)F)c1)c1ccc(Br)c(C(F)(F)F)c1)C(F)(F)F (stereo not shown) [Example 625, 3-[4-bromo-3-(trifluoromethyl)phenyl[[3-(trifluoromethyl)-phenyl]methyl]amino]-1,1,1-trifluoro-2-propanol] | 8.3 µM
CC(CCc1cccc(OC(F)(F)F)c1)N(CC(O)C(F)(F)F)c1cccc(Oc2ccccc2)c1 (stereo not shown) [Example 626, 3-[[1-methyl-3-[3-(trifluoromethoxy)phenyl]propyl](3-phenoxyphenyl)amino]-1,1,1-trifluoro-2-propanol] | 30 µM
COCc1cccc(CN(CC(O)C(F)(F)F)c2cccc(Oc3ccccc3)c2)c1 (stereo not shown) [Example 627, 3-[[(3-phenoxyphenyl)(3,3,3-trifluoro-2-hydroxypropyl)amino]methyl]methoxymethylbenzene] | 4.1 µM
CCN(CC)c1ccc(CN(CC(O)C(F)(F)F)c2cccc(Oc3ccccc3)c2)cc1 (stereo not shown) [Example 631, 3-[(3-phenoxyphenyl)[[4-(N,N-diethylamino)phenyl]methyl]amino]-1,1,1-trifluoro-2-propanol] | > 100 µM
OC(CN(Cc1cccc(OC(F)(F)F)c1)c1nc(Cl)nc(Oc2ccc(F)cc2)n1)C(F)(F)F (stereo not shown) [Example 632, N-[2-chloro-6-(p-fluorophenoxy)-1,3,5-triazin-4-yl]-3-[[[3-(trifluoromethoxy)phenyl]methyl]amino]-1,1,1-trifluoro-2-propanol] | 6.8 µM
Cc1ccc(Oc2cccc(N(Cc3cccc(OC(F)(F)F)c3)CC(O)C(F)(F)F)c2)cn1 (stereo not shown) [Example 633, 3-[[3-(2-methyl-5-pyridyloxy)phenyl][[3-(trifluoromethoxy)phenyl]methyl]-amino]-1,1,1-trifluoro-2-propanol] | 3.1 µM
OC(CN(Cc1cccc(OC(F)(F)F)c1)c1cccc(Cc2cccc(N(Cc3cccc(OC(F)(F)F)c3)CC(O)C(F)(F)F)c2)c1)C(F)(F)F (stereo not shown) [Example 665, 1,1′-[methylenebis[3,1-phenylene[[[3-(trifluoromethoxy)phenyl]methyl]imino]]]bis[3,3,3-trifluoro-2-propanol]] | 80 µM
